Patent US7670990B2, “Fungicidal composition comprising a pyridylethylbenzamide derivative and a compound capable of inhibiting mitosis and cell division” (Bayer Cropscience S.A., priority 2004, dated 2010)

Tested on: Erysiphe graminis f. sp. tritici
Assay: Efficacy against Erysiphe graminis f. sp. tritici on wheat plants (preventive spray treatment)
Type: in vivo
Conditions: Blumeria graminis, single active, wheat sprayed at 1-leaf stage, contaminated after 24 hours, graded 7 to 14 days after contamination vs control plants
Description: The active ingredients tested are prepared by potter homogenisation in a mixture of acetone/tween/water. This suspension is then diluted with water to obtain the desired active material concentration.
Wheat plants (Audace variety) in starter cups, sown on 50/50 peat soil-pozzolana substrate and grown at 12° C., are treated at the 1-leaf stage (10 cm tall) by spraying with the aqueous suspension described above.
Plants, used as controls, are treated with an aqueous solution not containing the active material.
After 24 hours, the plants are contaminated by dusting them with Erysiphe graminis f. sp. tritici spores, the dusting being carried out using diseased plants.
Grading is carried out 7 to 14 days after the contamination, in comparison with the control plants.

| Structure (SMILES) | Emax at 62.5 g/ha | Emax at 125 g/ha |
| --- | --- | --- |
| COC(=O)Nc1nc2ccccc2[nH]1 [Carbendazim, carbendazim] | 0% | 16% |
| O=C(NCCc1ncc(C(F)(F)F)cc1Cl)c1ccccc1C(F)(F)F [Compound 1, N-{2-[3-chloro-5-(trifluoromethyl)-2-pyridinyl]ethyl}-2-trifluoromethylbenzamide] | 42% | 63% |
